Drawing on patent publication US4551460A, “Pyrido[2,1-b]quinazoline derivatives useful as agents for treatment of allergic conditions and vascular disorders involving thrombosis” (priority 1983, dated 1985), this text covers IC50, Biological half-life and ED50 for two compounds.

Like-named read-outs stand apart in the source and are kept apart here.

Assay [1] concerns SRS-A induced contraction of guinea pig ileum. Kind of assay: In vitro SRS-A antagonism. The conditions noted are these: 30 seconds pretreatment. Here is the method: (j) In vitro SRS-A Antagonism
SRS-A was determined by bioassay on the guinea pig ileum using a modification of the method described by Orange et al., Adv. Immunol., 1969, 10, 105. A 1.5 cm segment of the ileum, obtained from male guinea pigs (175-200 g), was suspended in an organ bath containing Tyrodes solution with 10^-6 M atropine sulfate and 10^-6 M pyrilamine maleate. The bath was maintained at 37° C. and gassed with a mixture of 95 percent oxygen and 5 percent carbon dioxide. The ileum was attached to a strain gauge transducer and isotonic contractions recorded by a strip chart recorder. A resting tension of 0.5 g was applied and the tissue allowed to equilibrate for 1 hour.
The SRS-A used in these studies was obtained by challenging a large quantity of chopped lung fragments from actively sensitized guinea pigs with egg albumin in vitro. The animals were sensitized to egg albumin by an intraperitoneal injection of the antigen (1 ml of 10 mg/ml) in saline 28 to 45 days prior to challenge. The in vitro challenge was carried out by first preincubating the lung tissue (40 mg/ml) at 37° C. in Tyrodes solution for 5 minutes, adding the egg albumin ([…] final concentration) to the fragments and after a 10 minute challenge, separating the media containing the SRS-A from the lung tissue by filtration on Whatman #1 filter paper. The concentration of SRS-A in the filtrate was calibrated by comparison of the contraction amplitude elicited in the bioassay system by a given volume of the supernatant with contractions obtained by varying concentrations of histamine. One unit of SRS-A is equivalent to that quantity which will give the same contraction as 5 ng of histamine. After standarization, the SRS-A was stored in small aliquots at -80° C. for further use. […] SRS-A antagonism was determined by pretreating the ileum with drug for 30 seconds prior to the addition of a concentration of SRS-A which have a submaximal response, determination of the amplitude of contraction elicited in the presence of drug and then washing the ileum with Tyrodes. […]

For assay [2], the system named is leukotriene E induced bronchoconstriction. Kind of assay: Guinea pig bronchoconstriction, in vivo (aerosol). On the set-up: species or system guinea pig (Hartly strain). The note with it: aerosol at concentration inhibiting bronchoconstriction by 80%. Here is the method:
(c) Guinea Pig Bronchoconstriction, In Vivo (Aerosol):
Male guinea pigs (Hartly strain) weighing 300 to 500 g are anesthetized with urethane (2 g/kg) intraperitoneally and a polyethylene cannula is inserted into the jugular vein for drug administration. Tracheal pressure is recorded from a cannula inserted in the trachea and connected to a Statham pressure transducer. After surgical preparation of the animals, a period of time is allowed for pulmonary functions to stabilize. The test compound is administered according to the following protocol. Propranolol (0.1 mg/kg) is administered intravenously while the animals breathed spontaneously. Five minutes thereafter, the animals are exposed for a five minute period to a 1% (w/v) aerosol solution of test compound (adjusted to an alkaline pH where necessary for drug solubilization) or to distilled water of the appropriate pH (for control purposes). A Monaghan (Model 750) ultrasonic nebulizer is used to administer all test compounds by inhalation. The nebulizer ultrasonic frequency is adjusted to produce particles in the 1-8μ diameter range (average 3μ). Aqueous solutions are prepared fresh and introduced into the chamber of the nebulizer. The output of the nebulizer is made available to the animal by directing a bias flow of aerosol through a y tube connected to the tracheal cannula. At the end of the exposure period, the animals are paralyzed with succinylcholine (1.2 mg/kg, i.v.) and mechanically respirated (Harvard rodent respirator) at 40 breaths/minute and 2.5 cc tidal volume. Animals are then challenged with a maximum constrictory dose of leukotriene E delivered intravenously 30 seconds after administration of the succinylcholine.
The change (cm H2 O) between pre and peak ventilatory pressure readings is averaged for three control animals and five drug treated animals. The percent inhibition is calculated from the following formula:
(Control-Drug Tested/Control)×100
When various drug concentrations are tested, the percent inhibition at each concentration is plotted as log concentration (abscissa) versus percent inhibition (ordinate) and the IC50 is determined from linear regression analysis.
In order to determine the aerosol half-life (t 1/2), the animals are prepared as described above, except that the time between aerosol exposure and challenge with leukotriene E is varied. All compounds are administered at the concentration necessary to inhibit leukotriene-induced bronchoconstriction by 80%. Biological half-life is calculated from plots of time (abscissa) versus log percent inhibition (ordinate).

Assay [3] has as its system leukotriene E (LTE) induced skin wheal formation in rat skin. Kind of assay: LTE-induced skin wheal formation in rat. It is filed as in vivo. The conditions noted are these: rat skin wheal, read-out: ID50 (the source's name). Here is the method: (a) Methodology for LTE-induced Skin Wheal Formation in Rat. The ability of a drug to inhibit leukotriene E (LTE) induced skin wheal formation in rat skin is measured. In this model system a dose of LTE which gives a maximal wheal response, is injected (in 0.05 ml of saline) intradermally into anesthetized rats which have been pretreated for 30 minutes with 50 mg/kg of pyrilamine maleate and 4 mg/kg of methyl […] maleate (both administered intraperitoneally). The animal is then immediately treated with test drug (at 10 mg/kg, i.v.) followed by an intravenous injection of Evans blue (0.5%) into the tail vein of the animal. Thirty minutes later the animals are sacrificed and the increase in capillary permeability induced by LTE is reflected by the migration of dye into the injection point in the skin (the response being quantitated by the size, in mm, of the dye spot in the skin). The average response in 5 animals (4 intradermal injections of LTE per animal) treated with the test compound is compared with the response elicited in a similar group of animals which were not treated with the drug. For oral studies, the test animals are pretreated two hours prior to intradermal injection of LTE.

The test system of assay [4] is histamine-induced constriction in guinea pig ilea. Nature of the assay: Antagonism of histamine-induced constriction in guinea pig ilea. The conditions noted are these: 1×10^-7 M histamine. The protocol:
(f) Antagonism of Histamine-induced Constriction in Guinea Pig Ilea
Antihistaminic activity was determined on a segment of guinea pig ileum that was suspended in a 37° C. bath of oxygenated Tyrodes solution. At 4 minute intervals, the ileum was challenged with 1×10^-7 M histamine for sufficient time to produce a peak contraction and then washed with fresh Tyrodes solution. After the tissue response to histamine had stabilized, the ileum was pretreated with the standard antihistaminic compound, pyrilamine maleate, for 1 minute prior to rechallenge with histamine, the contraction recorded, and the tissue washed with Tyrodes solution. […] By the IC50 for pyrilamine maleate in the test system was 1×10^-8 M. IC50 's for test drugs were determined by this same procedure.

As usually defined, the IC50 is the concentration that gives 50% inhibition. Consider `CC(C)c1ccc2nc3ccc(C(=O)NCCCCc4cccnc4)cn3c(=O)c2c1` [Compound B, 2-(1-methylethyl)-N-[4-(3-pyridyl)butyl]-11-oxo-11H-pyrido[2,1-b]quinazoline-8-carboxamide], for which the IC50 was 1 µM in assay [1] and 2 µM in assay [4]. The same compound came in with a Biological half-life in assay [2] of 7 min. The ED50 was 15 mg/kg in assay [3] (iv) and 70 mg/kg in assay [3] (po).

In the case of `CC(C)c1ccc2nc3ccc(C(=O)NCCCCn4ccnc4)cn3c(=O)c2c1` [Compound A, N-[4-(1H-imidazol-1-yl)butyl]-2-(1-methylethyl)-11-oxo-11H-pyrido[2,1-b]quinazoline-8-carboxamide], the IC50 in assay [1] and in assay [4] was 1 µM in each case. In assay [2], this compound showed a Biological half-life of 56 min. The ED50 in assay [3] (iv) came to 30 mg/kg; in assay [3] (po), 46 mg/kg.
